This note sets out measurements from US20140357655A1, “SPIROINDOLINE DERIVATIVES AS GONADOTROPIN- RELEASING HORMONE RECEPTOR ANTAGONISTS” (Bayer Intellectual Property GmbH, priority 2012, published 2014).

pIC50: −log10 of the molar value.

The target of the experiment is T1, human GnRH receptor (Homo sapiens, UniProt P30968).
T1 sequence (P30968 1-328): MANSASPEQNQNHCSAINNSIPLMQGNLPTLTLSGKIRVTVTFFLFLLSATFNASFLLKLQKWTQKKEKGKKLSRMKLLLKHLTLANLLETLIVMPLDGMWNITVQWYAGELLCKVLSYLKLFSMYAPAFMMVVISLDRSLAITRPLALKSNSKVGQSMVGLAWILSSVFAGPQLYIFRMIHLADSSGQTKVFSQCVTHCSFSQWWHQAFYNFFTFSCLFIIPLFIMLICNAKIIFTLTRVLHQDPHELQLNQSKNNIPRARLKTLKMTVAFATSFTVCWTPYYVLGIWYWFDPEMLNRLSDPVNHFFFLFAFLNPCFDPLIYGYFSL
Nature of the experiment: IP-One HTRF assay with buserelin (at EC80) stimulation. It is filed as cell-based. The note with it: CHO cells stably expressing human GnRH receptor, read-out: Potency in IP-One HTRF assay, given as IC50. From the text: 2.3. IP-One HTRF® Assay By using homogenous time-resolved fluorescence resonance energy transfer (HTRF), the generation of one component of the GnRH—R signalling cascade can be measured. After stimulation of CHO cells stably expressing human GnRH receptor (established by Prof. Thomas Gudermann, currently University of Marburg, Germany; supplied as frozen cell aliquots by Cell Culture Services, Hamburg, Germany) with the EC80 of the GnRH agonist buserelin, Gq protein-coupled receptor signalling cascade is activated resulting in PLC-dependent cleavage of PIP2 to Inositol-1,4,5-triphosphate (IP3) and Diacylglycerol. The second messenger IP3 is degraded intracellularly to myo-inositol. Inhibition of the final degradation step from Inositol-1-phosphate (IP1) to myo-inositol by addition of lithium chloride leads to accumulation of IP1 in the cells. In cell lysates, IP1 can be detected via an antibody-based HTRF detection technology, where IP1 can displace the FRET acceptor IP1-d2 from binding by Terbium-labelled anti-IP1 antibody as donor resulting in a signal decrease. Compounds were tested for their capability of inhibiting GnRH—R activation by buserelin. For all IP-One HTRF® assays reagents of Cisbio Bioassays (IP-One Tb Jumbo kit, #62IPAPEJ; Cisbio Bioassays, Bagnols sur Cèze Cedex, France) were used.
For the assay, frozen cell aliquots were thawed and a cell suspension (3.33×10^6 cells/mL) containing IP1-d2 (dilution 1:40) was prepared and incubated at 37° C. After 1 h 3 μl of the cell suspension were added to 50 nl of a 100-fold concentrated solution of the test compound in DMSO pre-dispensed in a well of a white low-volume 384-well microtiter plate (Greiner Bio-One, Frickenhausen, Germany). […] Plates were incubated for 1 h at 37° C. and 5% carbon dioxide before the cells were lysed by adding 3 μl Terbium-labelled anti-IP1 antibody (1:40) diluted in Conjugate & Lysis buffer as supplied with the kit. After an incubation for 1 h at 22° C. to enable complete cell lysis and antibody binding to free IP1 or IP1-d2, plates were measured in an HTRF reader, e.g. a RUBYstar, PHERAstar (both BMG Labtechnologies, Offenburg, Germany) or a Viewlux (PerkinElmer LAS, Rodgau-Jügesheim, Germany).
From the fluorescence emissions at 665 nm (FRET) and at 620 nm (background signal of Terbium-antibody), the ratio (emission at 665 nm divided by emission at 620 nm) was calculated and the data were normalized (reaction without test compound=0% inhibition; all other assay components except agonist=100% inhibition). On the same microtiter plate, compounds were tested at 10 different concentrations in the range of 20 μM to 1 nM (20 μM, 6.7 μM, 2.2 μM, 0.74 μM, 0.25 μM, 82 nM, 27 nM, 9.2 nM, 3.1 nM and 1 nM; dilution series prepared before the assay at the level of the 100-fold conc. stock solutions by serial 1:3 dilutions in 100% DMSO) in duplicate values for each concentration. By using an in-house software, the IC50 values were calculated by a 4 parameter fit.
With `O=C(NCC1CC1)c1ccc2c(c1)C1(CCS(=O)(=O)CC1)C(C1CC1)N2S(=O)(=O)c1ccc(F)cc1` (single isomer, unassigned) [Example 35.1, 2-cyclopropyl-N-(cyclopropylmethyl)-1-[(4-fluorophenyl)sulfonyl]-1,2,2′,3′,5′,6′-hexahydrospiro[indole-3,4′-thiopyran]-5-carboxamide 1′,1′-dioxide], the pIC50 is 6.40.
The value for `O=C(NCC1CC1)c1ccc2c(c1)C1(CCS(=O)(=O)CC1)C(C1CC1)N2S(=O)(=O)c1ccc(F)cc1` (single isomer, unassigned) [Example 35.2, 2-cyclopropyl-N-(cyclopropylmethyl)-1-[(4-fluorophenyl)sulfonyl]-1,2,2′,3′,5′,6′-hexahydrospiro[indole-3,4′-thiopyran]-5-carboxamide 1′,1′-dioxide] was under 4.70.
As for `O=C(NCC1CCCCC1)c1ccc2c(c1)C1(CCS(=O)(=O)CC1)C(C1CC1)N2S(=O)(=O)c1ccc(F)cc1` (single isomer, unassigned) [Example 36.1, N-(cyclohexylmethyl)-2-cyclopropyl-1-[(4-fluorophenyl)sulfonyl]-1,2,2′,3′,5′,6′-hexahydrospiro[indole-3,4′-thiopyran]-5-carboxamide 1′,1′-dioxide], the figure is 6.97; as for `O=C(NCC1CCCCC1)c1ccc2c(c1)C1(CCS(=O)(=O)CC1)C(C1CC1)N2S(=O)(=O)c1ccc(F)cc1` (single isomer, unassigned) [Example 36.2, N-(cyclohexylmethyl)-2-cyclopropyl-1-[(4-fluorophenyl)sulfonyl]-1,2,2′,3′,5′,6′-hexahydrospiro[indole-3,4′-thiopyran]-5-carboxamide 1′,1′-dioxide], 5.41.
The value for `CN(C)S(=O)(=O)c1cccc(NC(=O)c2ccc3c(c2)C2(CCS(=O)(=O)CC2)C(C2CC2)N3S(=O)(=O)c2ccc(F)cc2)c1` (single isomer, unassigned) [Example 37.1, 2-cyclopropyl-N-[3-(N,N-dimethylsulfamoyl)phenyl]-1-[(4-fluorophenyl)sulfonyl]-1,2,2′,3′,5′,6′-hexahydrospiro[indole-3,4′-thiopyran]-5-carboxamide 1′,1′-dioxide] was 5.67; that for `CN(C)S(=O)(=O)c1cccc(NC(=O)c2ccc3c(c2)C2(CCS(=O)(=O)CC2)C(C2CC2)N3S(=O)(=O)c2ccc(F)cc2)c1` (single isomer, unassigned) [Example 37.2, 2-cyclopropyl-N-[3-(N,N-dimethylsulfamoyl)phenyl]-1-[(4-fluorophenyl)sulfonyl]-1,2,2′,3′,5′,6′-hexahydrospiro[indole-3,4′-thiopyran]-5-carboxamide 1′,1′-dioxide] was 7.36; that for `O=C(NCC1CCCC1)c1ccc2c(c1)C1(CCS(=O)(=O)CC1)C(C1CC1)N2S(=O)(=O)c1ccc(F)cc1` (single isomer, unassigned) [Example 38.1, N-(cyclopentylmethyl)-2-cyclopropyl-1-[(4-fluorophenyl)sulfonyl]-1,2,2′,3′,5′,6′-hexahydrospiro[indole-3,4′-thiopyran]-5-carboxamide 1′,1′-dioxide] was 7.06.
`O=C(NCC1CCCC1)c1ccc2c(c1)C1(CCS(=O)(=O)CC1)C(C1CC1)N2S(=O)(=O)c1ccc(F)cc1` (single isomer, unassigned) [Example 38.2, N-(cyclopentylmethyl)-2-cyclopropyl-1-[(4-fluorophenyl)sulfonyl]-1,2,2′,3′,5′,6′-hexahydrospiro[indole-3,4′-thiopyran]-5-carboxamide 1′,1′-dioxide]: the negative logarithm of the IC50 (pIC50) is 5.16.
The value for `COc1cccc(S(=O)(=O)N2c3ccc(C(=O)NCc4ncccc4C(F)(F)F)cc3C3(CCS(=O)(=O)CC3)C2C2CC2)c1` (single isomer, unassigned) [Example 39.1, 2-cyclopropyl-1-[(3-methoxyphenyl)sulfonyl]-N-{[3-(trifluoromethyl)pyridin-2-yl]methyl}-1,2,2′,3′,5′,6′-hexahydrospiro[indole-3,4′-thiopyran]-5-carboxamide 1′,1′-dioxide] was 7.40; that for `COc1cccc(S(=O)(=O)N2c3ccc(C(=O)NCc4ncccc4C(F)(F)F)cc3C3(CCS(=O)(=O)CC3)C2C2CC2)c1` (single isomer, unassigned) [Example 39.2, 2-cyclopropyl-1-[(3-methoxyphenyl)sulfonyl]-N-{[3-(trifluoromethyl)pyridin-2-yl]methyl}-1,2,2′,3′,5′,6′-hexahydrospiro[indole-3,4′-thiopyran]-5-carboxamide 1′,1′-dioxide] was 6.25.
As for `COc1cccc(S(=O)(=O)N2c3ccc(C(=O)NCc4ccccc4C(F)(F)F)cc3C3(CCS(=O)(=O)CC3)C2C2CC2)c1` (single isomer, unassigned) [Example 40.1, 2-cyclopropyl-1-[(3-methoxyphenyl)sulfonyl]-N-[2-(trifluoromethyl)benzyl]-1,2,2′,3′,5′,6′-hexahydrospiro[indole-3,4′-thiopyran]-5-carboxamide 1′,1′-dioxide], the figure is 7.72; as for `COc1cccc(S(=O)(=O)N2c3ccc(C(=O)NCc4ccccc4C(F)(F)F)cc3C3(CCS(=O)(=O)CC3)C2C2CC2)c1` (single isomer, unassigned) [Example 40.2, 2-cyclopropyl-1-[(3-methoxyphenyl)sulfonyl]-N-[2-(trifluoromethyl)benzyl]-1,2,2′,3′,5′,6′-hexahydrospiro[indole-3,4′-thiopyran]-5-carboxamide 1′,1′-dioxide], 6.20; as for `COc1cccc(S(=O)(=O)N2c3ccc(C(=O)NCc4ncccc4Cl)cc3C3(CCS(=O)(=O)CC3)C2C2CC2)c1` (single isomer, unassigned) [Example 41.1, N-[(3-chloropyridin-2-yl)methyl]-2-cyclopropyl-1-[(3-methoxyphenyl)sulfonyl]-1,2,2′,3′,5′,6′-hexahydrospiro[indole-3,4′-thiopyran]-5-carboxamide 1′,1′-dioxide], 6.99.
As to `COc1cccc(S(=O)(=O)N2c3ccc(C(=O)NCc4ncccc4Cl)cc3C3(CCS(=O)(=O)CC3)C2C2CC2)c1` (single isomer, unassigned) [Example 41.2, N-[(3-chloropyridin-2-yl)methyl]-2-cyclopropyl-1-[(3-methoxyphenyl)sulfonyl]-1,2,2′,3′,5′,6′-hexahydrospiro[indole-3,4′-thiopyran]-5-carboxamide 1′,1′-dioxide], the pIC50 was 6.37.
As for `COc1cccc(S(=O)(=O)N2c3ccc(C(=O)Nc4cccc(S(N)(=O)=O)c4)cc3C3(CCS(=O)(=O)CC3)C2C2CC2)c1` (single isomer, unassigned) [Example 42.1, 2-cyclopropyl-1-[(3-methoxyphenyl)sulfonyl]-N-(3-sulfamoylphenyl)-1,2,2′,3′,5′,6′-hexahydrospiro[indole-3,4′-thiopyran]-5-carboxamide 1′,1′-dioxide], the pIC50 was 6.36.
As for `COc1cccc(S(=O)(=O)N2c3ccc(C(=O)Nc4cccc(S(N)(=O)=O)c4)cc3C3(CCS(=O)(=O)CC3)C2C2CC2)c1` (single isomer, unassigned) [Example 42.2, 2-cyclopropyl-1-[(3-methoxyphenyl)sulfonyl]-N-(3-sulfamoylphenyl)-1,2,2′,3′,5′,6′-hexahydrospiro[indole-3,4′-thiopyran]-5-carboxamide 1′,1′-dioxide], the figure is 7.00.
